How the values were obtained:
human vanin-1 [1] = molecular target: T1, human vanin-1 (Homo sapiens (Human), UniProt O95497); test: Human Vanin-1 Enzyme Assay 1; format: biochemical; conditions: 25 pM human vanin-1, 50 uM pantetheine 7-amino-4-trifluoromethylcoumarin, 30 min preincubation, 60 min
Procedure: Human Vanin-1 Enzyme Assay 1.
(§1) The in vitro assay measures enzymatic cleavage of the fluorescently-labeled vanin substrate, pantetheine 7-amino-4-trifluoromethylcoumarin, by human vanin-1.
(§2) The vanin-1 protein was prepared in-house from a construct expressing the extracellular domain of human vanin-1 (GenBank ID NM_004666) preceded N-terminally by the honey bee melittin signal peptide, a GSG linker sequence, a His6X tag and a FLAG tag. The secreted, soluble enzyme was purified from the conditioned medium from a CHO cell line stably expressing the resulting protein. Enzyme purification was performed through sequential Ni NTA and size-exclusion chromatography steps.
The test inhibitors were solubilized in DMSO to a stock concentration of 30 mM. On the day of the assay, dose response plates were prepared by diluting the inhibitors in DMSO at compound concentration 200-fold the final in-assay concentration. Intermediate concentrations were prepared by diluting in DMSO in a four-fold series for a total of 11 data points.
To prepare a working solution of human vanin-1, the enzyme was diluted to 33.3 pM in the assay buffer consisting of 50 mM Tris-HCl pH=8.0, 50 mM KCl, 0.005% Brij-35 and […] cysteamine. To begin the assay 100 nL was transferred from the compound plate to the assay plate. Next, 15 μL of the vanin-1 working solution were transferred to the assay plate. The inhibitor and enzyme were incubated at room temperature for 30 minutes. The enzyme reaction was then initiated by the addition of 5 μL of 200 μM pantetheine 7-amino-4-trifluoromethylcoumarin prepared in assay buffer. The final concentrations in the assay were 25 pM human vanin-1 and 50 uM substrate. The final concentration of DMSO was 0.5%. The assay plates were incubated for 60 minutes and before they were read on a Perkin Elmer EnVision Model 2103 using a 405 nm excitation wavelength and a 510 nm emission wavelength for detection.

human vanin-1 [2] = molecular target: T1, human vanin-1; test: Human Vanin-1 Enzyme Assay 3; format: biochemical; conditions: 2 nM human vanin-1, 10 uM substrate, 15 min
Procedure: Human Vanin-1 Enzyme Assay 3.
as §1, §2
On the day of the assay, dose response plates were prepared by diluting the inhibitors in DMSO at compound concentration 100-fold the final in-assay concentration. Concentration series were prepared by serially diluting in DMSO in a two-fold series for a total of 11 data points. Intermediate compound plates containing compound in 10% DMSO were then created by diluting the compounds 10-fold in assay buffer consisting of 50 mM Tris-HCl pH=8.0, 50 mM KCl, 0.005% Brij-35 and 1.5 mM cysteamine. To begin the assay 3 μL were transferred from the intermediate compound plate to the assay plate.
A working solution of human vanin-1 was prepared by diluting the enzyme stock to 2.5 nM in assay buffer. Next, 24 μL of the vanin-1 working solution were transferred to the assay plate. The enzyme reaction was then initiated by the addition of 3 μL of 100 μM pantetheine 7-amino-4-trifluoromethylcoumarin prepared in 5 uM acetic acid. The final concentrations in the assay were 2 nM human vanin-1 and 10 uM substrate. The final concentration of DMSO was 1%. The assay plates were incubated at room temperature for 15 minutes and before they were read on a Tecan Safire using a 405 nm excitation wavelength and a 505 nm emission wavelength for detection.

T1 sequence (O95497 22-491): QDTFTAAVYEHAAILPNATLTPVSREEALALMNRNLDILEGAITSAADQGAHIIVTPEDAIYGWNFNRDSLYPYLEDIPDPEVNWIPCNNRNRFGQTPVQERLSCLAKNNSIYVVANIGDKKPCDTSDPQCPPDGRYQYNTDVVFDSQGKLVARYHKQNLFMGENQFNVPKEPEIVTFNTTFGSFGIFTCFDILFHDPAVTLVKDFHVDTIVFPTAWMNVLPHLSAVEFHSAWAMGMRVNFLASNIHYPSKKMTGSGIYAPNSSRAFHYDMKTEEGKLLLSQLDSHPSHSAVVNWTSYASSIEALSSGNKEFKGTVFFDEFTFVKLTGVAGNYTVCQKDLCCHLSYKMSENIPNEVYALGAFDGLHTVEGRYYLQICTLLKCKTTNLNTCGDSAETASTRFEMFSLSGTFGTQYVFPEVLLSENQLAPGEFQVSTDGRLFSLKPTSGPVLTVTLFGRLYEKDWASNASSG

Row | Structure (SMILES) | IC50 (human vanin-1 [1]) [nM] | IC50 (human vanin-1 [2]) [nM]
1 | O=C(c1cnc(NCc2ccccc2)nc1)c1cccc(C(F)(F)F)c1 [Example 35, [2-(benzylamino)pyrimidin-5-yl][3-(trifluoromethyl)phenyl]methanone] | 242 | 20.5
2 | Cc1cccc(C(=O)c2cnc(NCc3ccncc3)nc2)c1 [Example 39, (3-methylphenyl){2-[(pyridin-4-ylmethyl)amino]pyrimidin-5-yl}methanone] | 467 | 660
3 | COc1ccc(CNc2ncc(C(=O)c3ccc(F)c(F)c3)cn2)cc1 [Example 41, (3,4-difluorophenyl){2-[(4-methoxybenzyl)amino]pyrimidin-5-yl}methanone] | 4270 | 808
4 | Cc1cccc(C(=O)c2cnc(NCc3ccc(C#N)cc3)nc2)c1 [Example 42, 4-({[5-(3-methylbenzoyl)pyrimidin-2-yl]amino}methyl) benzonitrile] | 1060 | 709
5 | NC(=O)c1ccc(CNc2ncc(C(=O)c3ccc(F)c(F)c3)cn2)cc1 [Example 43, 4-({[5-(3,4-difluorobenzoyl)pyrimidin-2-yl]amino}methyl) benzamide] | 2220 | 490
6 | CC(C)(Nc1ncc(C(=O)c2ccc(F)c(F)c2)cn1)c1ccccc1 [Example 44, (3,4-difluorophenyl){2-[(2-phenylpropan-2-yl)amino]pyrimidin-5-yl}methanone] | 508 | 105
7 | O=C(c1cnc(OCc2ccc(F)cc2)nc1)c1cccc(C(F)(F)F)c1 [Example 46, {2-[(4-fluorobenzyl)oxy]pyrimidin-5-yl}[3-(trifluoromethyl)phenyl]methanone] | > 20000 | > 213
8 | O=C(c1cnc(OCc2ccc(Cl)cc2)nc1)c1cccc(C(F)(F)F)c1 [Example 47, {2-[(4-chlorobenzyl)oxy]pyrimidin-5-yl}[3-(trifluoromethyl)phenyl]methanone] | > 5130 | > 729
9 | N#Cc1cccc(CNc2ncc(C(=O)c3cccc(C(F)(F)F)c3)cn2)c1 [Example 62, 3-[({5-[3-(trifluoromethyl)benzoyl]pyrimidin-2-yl}amino)methyl] benzonitrile] | 150 | > 123
10 | N#Cc1cccc(CNc2ncc(C(=O)c3cccc(C#N)c3)cn2)c1 [Example 64, 3-({[5-(3-cyanobenzoyl)pyrimidin-2-yl]amino}methyl) benzonitrile] | 99.2 | 74.4
11 | NC(=O)c1ccc(CNc2ncc(C(=O)c3cccc(C(F)(F)F)c3)cn2)cn1 [Example 69, 5-[({5-[3-(trifluoromethyl)benzoyl]pyrimidin-2-yl}amino)methyl] pyridine-2-carboxamide] | 29.4 | 46.8
12 | NC(=O)c1ccc(CNc2ncc(C(=O)c3ccc(F)c(C(F)(F)F)c3)cn2)cn1 [Example 70, 5-[({5-[4-fluoro-3-(trifluoromethyl)benzoyl]pyrimidin-2-yl}amino)methyl] pyridine-2-carboxamide] | 140 | 77.8
13 | N#Cc1ccc(C(=O)c2cnc(NCc3ccc(F)cc3)nc2)cc1 [Example 78, 4-({2-[(4-fluorobenzyl)amino]pyrimidin-5-yl}carbonyl) benzonitrile] | > 20000 | 687
14 | COc1ccc(CNc2ncc(C(=O)c3ccc(C#N)cc3)cn2)cc1 [Example 79, 4-({2-[(4-methoxybenzyl)amino]pyrimidin-5-yl}carbonyl) benzonitrile] | 15100 | 348
15 | O=C(c1cnc(NCc2ccccn2)nc1)c1ccc(F)c(C(F)(F)F)c1 [Example 80, [4-fluoro-3-(trifluoromethyl)phenyl]{2-[(pyridin-2-ylmethyl)amino]pyrimidin-5-yl}methanone] | 384 | 30.1
16 | O=C(c1cnc(NCc2cccnc2)nc1)c1ccc(F)c(C(F)(F)F)c1 [Example 81, [4-fluoro-3-(trifluoromethyl)phenyl]{2-[(pyridin-3-ylmethyl)amino]pyrimidin-5-yl}methanone] | 3.4 | > 16.9

Row | Structure (SMILES) | IC50 (human vanin-1 [1]) [nM] | IC50 (human vanin-1 [2]) [nM]
17 | O=C(c1cnc(NCc2ccncc2)nc1)c1ccc(F)c(C(F)(F)F)c1 [Example 82, [4-fluoro-3-(trifluoromethyl)phenyl]{2-[(pyridin-4-ylmethyl)amino]pyrimidin-5-yl}methanone] | 111 | 55.5
18 | O=C(c1cnc(NCc2ccccc2)nc1)c1ccc(F)c(C(F)(F)F)c1 [Example 83, [2-(benzylamino)pyrimidin-5-yl][4-fluoro-3-(trifluoromethyl)phenyl]methanone] | 1050 | 84.4
19 | N#Cc1ccc(CNc2ncc(C(=O)c3ccc(F)c(C(F)(F)F)c3)cn2)cc1 [Example 84, 4-[({5-[4-fluoro-3-(trifluoromethyl)benzoyl]pyrimidin-2-yl}amino)methyl] benzonitrile] | 503 | 111
20 | O=C(c1cnc(NCc2ccc(F)cc2)nc1)c1ccc(F)c(C(F)(F)F)c1 [Example 85, {2-[(4-fluorobenzyl)amino]pyrimidin-5-yl}[4-fluoro-3-(trifluoromethyl)phenyl]methanone] | 1130 | 52.8
21 | O=C(c1cccc(Cl)c1)c1ccc(NCc2ccccc2)nn1 [Example 86, [6-(benzylamino)pyridazin-3-yl](3-chlorophenyl) methanone] | 14700 | 758
22 | COc1ccc(CNc2ccc(C(=O)c3cccc(C(F)(F)F)c3)nn2)cc1 [Example 88, {6-[(4-methoxybenzyl)amino]pyridazin-3-yl}[3-(trifluoromethyl)phenyl]methanone] | 18600 | 9.3
23 | O=C(O)c1ccc(CNc2ncc(C(=O)c3ccc(F)c(C(F)(F)F)c3)cn2)cc1 [Example 89, 4-[({5-[4-fluoro-3-(trifluoromethyl)benzoyl]pyrimidin-2-yl}amino)methyl] benzoic acid] | 1000 | 615
24 | O=C(c1cccc(C(F)(F)F)c1)c1ccc(NCc2ccccc2)nn1 [Example 90, [6-(benzylamino)pyridazin-3-yl][3-(trifluoromethyl)phenyl]methanone] | 7430 | 86.4
25 | O=C(c1cccc(C(F)(F)F)c1)c1ccc(NCc2ccc(F)cc2F)nn1 [Example 92, {6-[(2,4-difluorobenzyl)amino]pyridazin-3-yl}[3-(trifluoromethyl)phenyl]methanone] | > 20000 | 566
26 | O=C(c1cnc(NCc2ccccc2)nc1)c1cc(F)cc(C(F)(F)F)c1 [Example 93, [2-(benzylamino)pyrimidin-5-yl][3-fluoro-5-(trifluoromethyl)phenyl]methanone] | 2150 | 154
27 | N#Cc1ccc(CNc2ncc(C(=O)c3cc(F)cc(C(F)(F)F)c3)cn2)cc1 [Example 94, 4-[({5-[3-fluoro-5-(trifluoromethyl)benzoyl]pyrimidin-2-yl}amino)methyl] benzonitrile] | 2200 | 987
28 | CS(=O)(=O)c1cccc(C(=O)c2cnc(NCc3ccc(F)cc3)nc2)c1 [Example 96, {2-[(4-fluorobenzyl)amino]pyrimidin-5-yl}[3-(methylsulfonyl)phenyl]methanone] | 14.2 | 415
29 | O=C(c1cnc(NCc2ccccc2)nc1)c1ccc2c(c1)OCCO2 [Example 97, [2-(benzylamino)pyrimidin-5-yl](2,3-dihydro-1,4-benzodioxin-6-yl)methanone] | 4850 | 873
30 | O=C(c1ccccc1)c1cnc(NCc2ccccc2)nc1 [Example 99, [2-(benzylamino)pyrimidin-5-yl](phenyl) methanone] | 1680 | 537
31 | O=C(c1ccccc1)c1cnc(NCc2ccccc2F)nc1 [Example 101, {2-[(2-fluorobenzyl)amino]pyrimidin-5-yl}(phenyl) methanone] | 804 | 150
32 | NC(=O)c1ccc(CNc2ncc(C(=O)c3ccccc3)cn2)cn1 [Example 107, 5-{[(5-benzoylpyrimidin-2-yl)amino]methyl} pyridine-2-carboxamide] | 906 | 751
